Experimental data: patent US20030105034A1, “Pyridine carboxy derivatives and an aminosugar” (Astion Deveopment A/S, priority 2001, published 2003)
“Also recorded” adds a separate entry of the source. Marks after values point to notes of the source that are not given here.

Assays:
[1] = tested on: tetradecanoyl phorbol acetate (TPA) induced ear inflammation; assay: TPA induced ear inflammation test in the mouse, two doses of two complexes (Example 239); assay type: in vivo; settings: Locoid solution 0.1%, 0.02 mg per application; positive control; ears weighed 3 h after TPA
Source text: (§1) The objective of this study is to assess the effect of two doses of two chemical complexes of the invention topically administered in the tetradecanoyl phorbol acetate (TPA) induced ear inflammation test in the mouse, a commonly employed method for screening and evaluation of antiinflammatory drugs. Locoid® cutaneous solution (0.1% hydrocortisone 17-butyrate) is used as a positive control.
At start of the acclimatisation period the mice is in the weight range of 18-20 g. An acclimatisation period of 7 days is allowed.
On the day of arrival the animals is randomly allocated to 7 groups, each of 9 mice.
The test substances are applied in 20 μl volumes to the inner surface of the right ear on day 0. 20 minutes before and again 20 minutes after TPA treatment. All groups is treated with 20 μl acetone on the left ear and with 20 μl TPA, 400 μg/ml, on the right ear.
Three hours after the TPA application the mice are sacrificed, the ears cut off and weighed. Mean weights and standard deviations are calculated. Percent inhibition of the oedema compared with group 1 is calculated for the groups 2-7. Weights of the left ears is used to assess the comparability of the groups and to calculate differences in weight between left and right ear.

[2] = tested on: tetradecanoyl phorbol acetate (TPA) induced ear inflammation; assay: TPA induced ear inflammation test in the mouse, Compound 122 compared to its components (Example 241); assay type: in vivo; settings: for Inhibition of ear swelling (%): versus vehicle group A, 3 h after TPA; for inhibition of ear swelling, result in words: Compound 122 7.0 mg, niacinamide 3.67 mg, N-acetylglucosamine 3.33 mg per application
Source text: as §1, with “Compound 122 as compared to its components” for “two doses of two chemical complexes of the invention topically administered”
The test articles are the complex of the invention prepared according to example 118 (Compound 122 in the following) and its components niacinamide and N-acetylglucosamine, all obtained from Astion A/S, Denmark.
The study is performed in female SPF NMRI mice of the stock Bom:NMRI from M & B A/S, Denmark. At start of the acclimatisation period the mice is in the weight range of 18-20 g. An acclimatisation period of 7 days is allowed.
On day 0 the test substances are applied in 20 μl volumes to the inner surface of the right ear 20 minutes before and again 20 minutes after TPA treatment. All groups are treated with 20 μl acetone on the left ear and with 20 μl TPA, 400 μg/ml, on the right ear.
Three hours after the TPA application the mice are sacrificed, the ears cut off and weighed.
The amount of niacinamide and N-acetylglucosamine administered to groups C and D corresponds exactly to the amount of the two substances present in Compound 122 administered to group B.
Mean weights and standard deviations are calculated. Percent inhibition of the oedema compared with group A is calculated for the groups B-E. Weights of the left ears are used to assess the comparability of the groups and to calculate differences in weight between left and right ear.
Ear swelling is determined as the difference between the weight of right and left ear. The following inhibition of ear swelling is observed in groups B-E: […]

SMILES | inhibition of ear swelling [1] [%] | Inhibition of ear swelling (%) ([2]; 0.02 mg per application, group E, positive control) | Inhibition of ear swelling (%) ([2]; 3.33 mg per application, group D) | inhibition of ear swelling, result in words [2] | Inhibition of ear swelling (%) ([2]; 3.67 mg per application, group C)
CCCC(=O)O[C@]1(C(=O)CO)CC[C@H]2[C@@H]3CCC4=CC(=O)CC[C@]4(C)[C@H]3[C@@H](O)C[C@@]21C [Hydrocortisone 17-butyrate, hydrocortisone 17-butyrate] | 90 | 89*** % | – | – | –
CC(=O)N[C@H]1C(O)O[C@H](CO)[C@@H](O)[C@@H]1O (stereo partly drawn) [N-acetylglucosamine] | – | – | 31* % | only displayed a modest inhibition; also recorded: showed much lesser inhibition of ear swelling | –
NC(=O)c1cccnc1 [Niacinamide] | – | – | – | only displayed a modest inhibition; also recorded: showed much lesser inhibition of ear swelling | 31** %
